Test results published in patent US10807960B2, “Compounds, compositions, and methods for controlling biofilms” (KATHOLIEKE UNIVERSITEIT LEUVEN, priority 2015, dated 2020).
Read-outs that look alike come from different tables or passages of the source.

How the values were obtained:
C. albicans SC5314 = experiment: inhibition of C. albicans biofilms, cell titer blue (CTB) quantification; format: cell-based, Candida albicans; settings: monospecies biofilm; novel compounds: highest concentration tested 100 μM
Description: The potential of the compounds to prevent C. albicans SC5314 biofilm formation was assessed using the cell titer blue (CTB) quantification method (26). For the CTB method, an overnight culture of C. albicans SC5314 was washed with PBS and a cell suspension of 10^6 cells/ml (OD600=0.1) was prepared in RPMI 1640 medium (pH 7.0). […] After 16 h of static incubation at 37° C., biofilms were washed and quantified with CTB as described previously.

[1] = test system: C. albicans SC5314 + S. epidermidis; experiment: mixed C. albicans/S. epidermidis biofilm assay, selective plating; format: cell-based, Candida albicans; Staphylococcus epidermidis; settings: for activity at 25 µM: 25 μM (Table 5); for activity at 100 µM: 100 μM (Table 5)
Description: The concentrations 25 μM (0.0625% DMSO or ethanol) and 100 μM (0.25% DMSO or ethanol) were tested. After 24 h of incubation at 37° C., biofilms were washed with PBS and fresh medium with or without compounds was added. After further incubation for 48 h at 37° C., the biofilms were washed with PBS after which the cells were re-suspended in 100 μl of PBS by scraping off, sonication (1 min, 45 kHz, USC300-T; VWR, Radnor, Pa., USA) and vigorously pipetting up-and-down. Finally, the biofilm cells were diluted in PBS and plated on YPD agar plates containing 100 mg/L ampicillin and TSA plates containing 25 mg/L amphotericin B, to determine the number of fungal and bacterial CFUs after 2 days of incubation at 37° C., respectively. The percentage of C. albicans SC5314 and S. epidermidis cells was determined relative to the DMSO or ethanol control treatment.

[2] = test system: bone-marrow derived mesenchymal stem cells (MSC); experiment: mammalian-cell viability assay, trypan blue staining; format: cell-based; settings: 12.5 μM, 6 days exposure
Description: (§1) Cell viability of two human primary cell types, namely, osteoblasts (OB) and bone-marrow derived mesenchymal stem cells (MSC) was tested according to the ISO 10993-5 standard, as previously described. Briefly, cells were seeded in 96-well tissue culture test plates (TPP, Switzerland) at 5×10^3 cells/cm^2 in Advanced DMEM cell culture media supplemented with 10% serum, 1× GlutaMAX, 0.05 mg/mL Gentamycin, and were allowed to attach overnight. The next day, the cells were exposed to (i) cell culture medium and medium with the corresponding control (0.5% ethanol or DMSO) (negative controls), (ii) medium with 0.05% phenol (cytotoxic control), and (iii) medium with compounds (12.5 μM) and incubated for 2 h, 48 h and 6 days (8 repeats for each condition). At each time-point the numbers of viable and dead cells were determined directly by trypan blue staining, and indirectly by measuring the metabolic activity with MTT (3-(4,5-dimethylthiazol-2-yl)-2,5-diphenyltetrazolium bromide) staining.
(§2) The medium was removed from the wells, and 1/3 trypan blue in Dulbecco's modified Eagle's medium (DMEM) was added to the cells, incubated for 3 min, after which trypan blue was removed and DMEM medium was added to the wells. In each of four wells, two microscopy fields were counted for viable (transparent) and dead (blue) cells.

osteoblasts (OB) [3] = experiment: as above; format: cell-based; settings: 12.5 μM, 6 days exposure
Description: as §1, §2

[4] = test system: bone-marrow derived mesenchymal stem cells (MSC); experiment: metabolic activity, MTT staining; format: cell-based; settings: 12.5 μM, 6 days treatment
Description: as §1
(§3) The medium was removed from the wells and 100 μl of medium, supplemented with 10% serum and 0.5 mg/mL MTT was added to the cells. The cells were incubated overnight at 37° C. and 5% CO2. The next day the medium with MTT was removed and 100 μl acidic isopropanol was added. The cells were then centrifuged at 2300 g and 50 μl of the supernatant was transferred to a new 96-well plate. The absorbance was measured at 570 nm and the background was measured at 660 nm. Four wells per condition were examined.

osteoblasts (OB) [5] = experiment: metabolic activity, MTT staining; format: cell-based; settings: 12.5 μM, 6 days treatment
Description: as §1, §3

[6] = test system: bone-marrow derived mesenchymal stem cells (MSC); experiment: osteogenic differentiation, calcium and DNA assay; format: cell-based, human; settings: 12.5 μM, calcium content normalized by DNA, versus solvent control
Description: (§4) The effect on osteogenic differentiation potential was assessed as previously described. Only the substances that allowed survival of the cells for more than 3 weeks, which is the time needed for mature osteogenic differentiation, were tested. Briefly, osteoblasts and bone-marrow derived mesenchymal stem cells were cultured in a positive solvent control (osteogenic medium with 0.5% DMSO or ethanol background), a negative control (medium without osteogenic supplements) and treated samples (osteogenic medium, 0.5% DMSO or ethanol background and 12.5 μM of test compound) with four repeats per condition. Mesenchymal stem cells and osteoblast cell cultures were harvested after 3 or 5 weeks, respectively, for the calcium and DNA assay.
(§5) Calcium deposition of osteoblasts and mesenchymal stem cells was measured with the Calcium CPC LiquiColor test (Stanbio Laboratory, Boerne, Tex.) as previously described. Briefly, cell cultures were extracted with 5% trichloroacetic acid (500 μl per sample), O-cresolphtalein complex was added, and the calcium content was determined spectrophotometrically at 550 nm. DNA content was determined as previously described. DNA values were used to normalize the calcium content. Four wells per condition were examined, and two samples from each well were taken for each assay.

osteoblasts (OB) [7] = experiment: osteogenic differentiation, calcium and DNA assay; format: cell-based, human; settings: 12.5 μM, calcium content normalized by DNA, versus solvent control
Description: as §4, §5

[8] = C. albicans in mixed biofilm with S. epidermidis, read-out: CFUs % survival C.a.

| Structure (SMILES) | anti-biofilm activity (in words) (C. albicans SC5314) | effect on the C. albicans/S. epidermidis mixture (in words) [1] | activity at 25 µM [1, 8] | activity at 100 µM [1, 8] | proliferation (in words) [2] | proliferation (in words) (osteoblasts (OB) [3]) | metabolic activity compared to the solvent control (in words) [4] | metabolic activity compared to the solvent control (in words) (osteoblasts (OB) [5]) | calcium deposition (in words) [6] | calcium deposition (in words) (osteoblasts (OB) [7]) | activity at 25 µM ([1]; S. epidermidis in mixed biofilm with C. albicans, read-out: CFUs % survival S.c.) | activity at 100 µM ([1]; S. epidermidis in mixed biofilm with C. albicans, read-out: CFUs % survival Se.) |
| --- | --- | --- | --- | --- | --- | --- | --- | --- | --- | --- | --- | --- |
| CCCCCCCCn1c(-c2ccc(Cl)c(Cl)c2)cnc1NCC(C)C [Compound 8d, 5-(3,4-dichlorophenyl)-N-isobutyl-1-octyl-1H-imidazol-2-amine] | not active | only reduced C. albicans | 2.5% | 1.4% | increase in proliferation | increase in proliferation | increased | increased | none of the compounds negatively affected the calcium deposition | none of the compounds negatively affected the calcium deposition | – | – |
| CCCCCCCCn1c(-c2ccc(Br)cc2)cnc1NC1CCCC1 [Compound 8g, 5-(4-bromophenyl)-N-cyclopentyl-1-octyl-1H-imidazol-2-amine] | – | – | 3.3% | 5.9% | slightly reduced | increase in proliferation | increased | increased | induced the calcium deposition | induced the calcium deposition | 0% | 0% |
